Consider 14 molecules from ChEMBL document CHEMBL1154431, “Synthesis of biologically active N-methyl derivatives of amidines and cyclized five-membered products of amidines with oxalyl chloride” (2008).

Structures are written as SMILES.

Common to all, as to format: functional
Experiment [1] concerns Rattus norvegicus. As to the kind of experiment: Antiinflammatory activity against carrageenan-induced paw edema in albino rat at 100 mg/kg, po administered 30 mins before carrageenan challenge measured after 1 to 3 hrs. (In general: Carrageenan injected into the paw causes an acute inflammation.)
Experiment [2] relates to Mus musculus. As to the kind of experiment: Analgesic activity in mouse assessed as decrease in acetic acid-induced writhing at 100 mg/kg, po administered 30 mins before acetic acid challenge measured after 1 hr. Further details: scale not given: the % may be the effect or the level left.
For experiment [3], the system named is Rattus norvegicus. The experiment can be described thus: Antiinflammatory activity against carrageenan-induced paw edema in albino rat at 50 mg/kg, po administered 30 mins before carrageenan challenge measured after 1 to 3 hrs.
The test system of experiment [4] is Mus musculus. The experiment can be described thus: Analgesic activity in mouse assessed as decrease in acetic acid-induced writhing at 50 mg/kg, po administered 30 mins before acetic acid challenge measured after 1 hr. Further details: scale not given: the % may be the effect or the level left.
The test system of experiment [5] is Rattus norvegicus. The experiment can be described thus: Antiinflammatory activity against carrageenan-induced paw edema in albino rat at 25 mg/kg, po administered 30 mins before carrageenan challenge measured after 1 to 3 hrs.
The test system of experiment [6] is Mus musculus. As to the kind of experiment: Analgesic activity in mouse assessed as decrease in acetic acid-induced writhing at 25 mg/kg, po administered 30 mins before acetic acid challenge measured after 1 hr. Further details: scale not given: the % may be the effect or the level left. Background: Writhing tests count abdominal constrictions after an irritant is injected.

For the molecule `C/N=C(/NNS(=O)(=O)c1ccc(C)cc1)c1ccccn1`, the Activity in experiment [1] is listed as 12%; in experiment [2] it was 75%.

For `COc1ccc(S(=O)(=O)NN2C(=O)C(=O)N=C2c2ccccn2)cc1`, the figures for the Activity in experiment [3] and in experiment [4] were 20% and 18%, respectively.

`Cc1ccc(S(=O)(=O)NN2C(=O)C(=O)N=C2c2ccccn2)cc1`: the results for the Activity in experiment [3] and in experiment [4] were 31% and 60%, respectively.

`C/N=C(/NNS(=O)(=O)c1ccc(OC)cc1)c1ccncc1`: the Activity in experiment [3] is listed as 21%; in experiment [4] it was 13%.

For the molecule `C/N=C(/NNS(=O)(=O)c1ccccc1)c1cnccn1`, the Activity in experiment [3] and in experiment [4] was 11% throughout.

As to `COc1ccc(S(=O)(=O)NN2C(=O)C(=O)N=C2c2ccncc2)cc1`, the Activity in experiment [1] is reported as 34%; in experiment [2] it was 75%.

As to `C/N=C(/NNS(=O)(=O)c1ccc(OC)cc1)c1cnccn1`, the Activity in experiment [3] worked out at 20%; in experiment [4] it was 16%.

Consider `O=C1N=C(c2ccncc2)N(NS(=O)(=O)c2ccccc2)C1=O`, for which the Activity in experiment [3] is 37%; in experiment [4], 60%.

As for `COc1ccc(S(=O)(=O)NN2C(=O)C(=O)N=C2c2cnccn2)cc1`, the Activity is listed as 13% in experiment [3] and 12% in experiment [4].

On to `C/N=C(/NNS(=O)(=O)c1ccc(C)cc1)c1ccncc1`, for which the Activity is reported as 44% in experiment [3]; 27% in experiment [5]; 9% in experiment [6]; 56% in experiment [1]; 17% in experiment [4]; 33% in experiment [2].

Regarding `O=C1N=C(c2cnccn2)N(NS(=O)(=O)c2ccccc2)C1=O`, the Activity in experiment [3] turned out to be 25%; in experiment [4] it was 30%.

For `C/N=C(/NNS(=O)(=O)c1ccccc1)c1ccncc1`, the Activity came to 16% in experiment [3] and 7% in experiment [4].

For `C/N=C(/NNS(=O)(=O)c1ccc(OC)cc1)c1ccccn1`, the Activity in experiment [3] and in experiment [4] was 20% throughout.

For the molecule `CCCCC1C(=O)N(c2ccccc2)N(c2ccccc2)C1=O` [PHENYLBUTAZONE], the Activity was 37% in experiment [3]; 19% in experiment [5]; 24% in experiment [6]; 58% in experiment [1]; 40% in experiment [4]; 58% in experiment [2].
